Source: patent publication US20120116095A1, “GLYCINE TRANSPORTER INHIBITORS” (TAISHO PHARMACEUTICAL C0., LTD., priority 2009, published 2012)

The compounds below were run against T1, human type 1 glycine transporter (GlyT1) (Homo sapiens, UniProt P48067) (assay: Glycine uptake inhibition experiment ([3H]glycine uptake in T98G cells)). Details: [3H]glycine 250 nM, 15 min, room temperature, read-out: glycine uptake inhibitory activity (IC50 value).
T1 construct: Glioma T98G cells endogenously expressing human type 1 glycine transporter (GlyT1) were used; endogenous in cells; host or cells: T98G human glioma cells
T1 sequence (P48067 1-706): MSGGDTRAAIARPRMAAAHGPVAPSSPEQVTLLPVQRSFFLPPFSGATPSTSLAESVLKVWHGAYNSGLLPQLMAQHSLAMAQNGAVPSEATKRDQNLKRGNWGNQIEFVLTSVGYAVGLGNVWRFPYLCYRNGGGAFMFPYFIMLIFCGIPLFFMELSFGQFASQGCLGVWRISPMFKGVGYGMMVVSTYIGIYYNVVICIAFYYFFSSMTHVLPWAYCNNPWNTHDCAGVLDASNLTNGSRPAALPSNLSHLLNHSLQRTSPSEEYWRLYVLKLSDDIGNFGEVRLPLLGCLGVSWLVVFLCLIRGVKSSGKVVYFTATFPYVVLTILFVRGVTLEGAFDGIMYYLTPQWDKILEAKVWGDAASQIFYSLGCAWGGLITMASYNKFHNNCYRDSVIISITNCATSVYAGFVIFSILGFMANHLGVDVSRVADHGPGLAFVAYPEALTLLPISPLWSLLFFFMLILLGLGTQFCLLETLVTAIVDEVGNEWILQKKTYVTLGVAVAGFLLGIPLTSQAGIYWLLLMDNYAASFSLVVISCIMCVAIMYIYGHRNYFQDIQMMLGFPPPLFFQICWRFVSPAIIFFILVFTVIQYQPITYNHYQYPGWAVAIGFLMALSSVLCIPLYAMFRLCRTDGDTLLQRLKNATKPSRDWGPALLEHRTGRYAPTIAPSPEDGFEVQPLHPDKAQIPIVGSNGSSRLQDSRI
Type: cell-based
Experimental: A glycine uptake experiment was conducted as described in Neuron, 8, 927-935, 1992. Glioma T98G cells endogenously expressing human type 1 glycine transporter (GlyT1) were used. T98G cells were seeded in a 96-well plate at 2.0×10^4 cells/well and cultured overnight in a CO2 incubator. A test compound was dissolved in a 100% DMSO solution and then dissolved in 10 mM HEPES buffer (pH 7.4) containing 150 mM sodium chloride, 1 mM calcium chloride, 5 mM potassium chloride, 1 mM magnesium chloride, 10 mM glucose and 0.2% bovine serum albumin. After removing the cell culture medium, the cells were pre-treated with the test compound for 10 minutes. Subsequently, the test compound and [^3H]glycine (final concentration: 250 nM) were added to the cells and incubated at room temperature for 15 minutes. After the incubation, the extracellular solution was aspirated with a manifold to remove the excess labeled glycine existing outside the cells, and the cells were then lysed with 0.5 M aqueous sodium hydroxide. The amount of glycine uptake was determined by measuring radioactivity in the cell lysate using a liquid scintillation counter. Glycine uptake in the presence of 10 μM ALX5407 was defined as non-specific uptake, and the value calculated by subtracting this non-specific uptake from the total uptake in the absence of 10 μM ALX5407 was defined as specific uptake. Moreover, an inhibition curve was obtained for each test compound at concentrations of […] to calculate the glycine uptake inhibitory activity (IC50 value) of each test substance.
It should be noted that ALX5407 is a HCl salt of N-[(3R)-3-([1,1′-biphenyl]-4-yloxy)-3-(4-fluorophenyl)propyl]-N-methylglycine.
CCn1cnc(C(=O)N(Cc2ccc(F)c(-c3cc(F)c(F)c(F)c3)c2)C(C)C)c1 [Compound 42] was tested, and the IC50 was 0.0483 µM.
CC(C)N(Cc1ccc(F)c(-c2cc(F)cc(C#N)c2)c1)C(=O)c1cn(C)cn1 [Compound 39] showed an IC50 of 0.0485 µM.
Compound CCC(CC)N(Cc1ccc(F)c(-c2cccc(CO)c2)c1)C(=O)c1cn(C)cn1 [Compound 11] has an IC50 of 0.0351 µM.
In the case of COc1ccc(-c2cc(CN(C(=O)c3cn(C)cn3)C(C)C)ccc2F)cc1 [Compound 25], the IC50 is reported as 0.0254 µM.
COc1ccc(-c2cc(CN(C(=O)c3cn(C)cn3)C(C)C)ccc2F)cc1F [Compound 19] gave an IC50 of 0.0186 µM.
Work on CC(C)N(Cc1ccc(F)c(-c2cccc(OC(F)(F)F)c2)c1)C(=O)c1cn(C)cn1 [Compound 15] yielded an IC50 of 0.0214 µM.
Compound CC(CO)N(Cc1ccc(F)c(-c2ccc(OC(F)(F)F)cc2)c1)C(=O)c1cn(C)cn1 (stereo not drawn) [Compound 52] has an IC50 of 0.0307 µM.
With CC(C)N(Cc1ccc(F)c(-c2ccc(F)c(F)c2)c1)C(=O)c1cn(C)cn1 [Compound 17] the IC50 was 0.0188 µM.
CC(C)N(Cc1ccc(F)c(-c2ccccc2)c1)C(=O)c1cn(C)cn1 [Compound 22] showed an IC50 of 0.0116 µM.
Compound Cn1cnc(C(=O)N(Cc2ccc(F)c(-c3cccc(CO)c3)c2)C2CCCC2)c1 [Compound 14] has an IC50 of 0.00278 µM.
Cn1cnc(C(=O)N(Cc2ccc(F)c(-c3cccc(CO)c3)c2)C2CCC2)c1 [Compound 13, N-Cyclobutyl-N-{[6-fluoro-3′-(hydroxymethyl)biphenyl-3-yl]methyl}-1-methyl-1H-imidazole-4-carboxamide] gave an IC50 of 0.00433 µM.
Cn1cnc(C(=O)N(Cc2ccc(F)c(-c3cccc(CO)c3)c2)C2CCCCC2)n1 [Compound 6] showed an IC50 of 0.0146 µM.
Compound CC(C)N(Cc1ccc(F)c(-c2cccc(OC(F)F)c2)c1)C(=O)c1cn(C)cn1 [Compound 34] has an IC50 of 0.0494 µM.
Work on Cn1cnc(C(=O)N(Cc2ccc(F)c(-c3cccc(CO)c3)c2)C2CCCCC2)c1 [Compound 8] yielded an IC50 of 0.011 µM.
Cn1cnc(C(=O)N(Cc2ccc(F)c(-c3ccc(F)c(F)c3)c2)C2CCCC2)c1 [Compound 31] showed an IC50 of 0.021 µM.
In the case of CC(C)N(Cc1ccc(F)c(-c2cccc(F)c2)c1)C(=O)c1cn(C)cn1 [Compound 20], the IC50 is reported as 0.00719 µM.
COCCN(Cc1ccc(F)c(-c2ccc(OC(F)(F)F)cc2)c1)C(=O)c1cn(C)cn1 [Compound 16] showed an IC50 of 0.0415 µM.
For COc1cccc(-c2cc(CN(C(=O)c3cn(C)cn3)C(C)C)ccc2F)c1 [Compound 24], the IC50 was 0.0142 µM.
With CCOc1cccc(-c2cc(CN(C(=O)c3cn(C)cn3)C(C)C)ccc2F)c1 [Compound 21] the IC50 was 0.0136 µM.
CC(C)N(Cc1ccc(F)c(-c2ccccc2F)c1)C(=O)c1cn(C)cn1 [Compound 23] gave an IC50 of 0.0214 µM.
CC(C)N(Cc1ccc(F)c(-c2ccc(Cl)cc2)c1)C(=O)c1cn(C)cn1 [Compound 26] showed an IC50 of 0.04 µM.
CC(C)N(Cc1ccc(F)c(-c2ccc(F)cc2)c1)C(=O)c1cn(C)cn1 [Compound 18] showed an IC50 of 0.00889 µM.
CC(C)N(Cc1ccc(F)c(-c2ccc(OC(F)F)cc2)c1)C(=O)c1cn(C)cn1 [Compound 35] showed an IC50 of 0.0489 µM.
Compound CC(C)N(Cc1ccc(F)c(-c2cc(F)cc(F)c2)c1)C(=O)c1cn(C)cn1 [Compound 28] has an IC50 of 0.0226 µM.
With CC(C)N(Cc1ccc(F)c(-c2cccc(CO)c2)c1)C(=O)c1cn(C)cn1 [Compound 7] the IC50 was 0.0259 µM.
For CCn1cnc(C(=O)N(Cc2ccc(F)c(-c3ccc(OC(F)(F)F)cc3)c2)C(C)C)c1 [Compound 40, 1-Ethyl-N-{[6-fluoro-4′-(trifluoromethoxy)biphenyl-3-yl]methyl}-N-(propan-2-yl)-1H-imidazole-4-carboxamide], the IC50 was 0.0359 µM.
COC(=O)c1cccc(-c2cc(CN(C(=O)c3ncn(C)n3)C3CCCCC3)ccc2F)c1 [Compound 2] showed an IC50 of 0.0126 µM.
With CC(C)N(Cc1ccc(F)c(-c2cc(F)c(F)c(F)c2)c1)C(=O)c1cn(C)cn1 [Compound 36] the IC50 was 0.0382 µM.

Same assay, conditions: [3H]glycine 250 nM, 15 min, room temperature, read-out: glycine uptake inhibitory activity (IC50 value), bounds
Work on C=C(C)N(Cc1ccc(F)c(-c2ccc(OC(F)(F)F)cc2)c1)C(=O)c1cn(C)cn1 [Compound 53, N-{[6-Fluoro-4′-(trifluoromethoxy)biphenyl-3-yl]methyl}-1-methyl-N-(prop-1-en-2-yl)-1H-imidazole-4-carboxamide] yielded an IC50 of no less than 0.1 µM.
In the case of CC(C)N(Cc1ccc(F)c(-c2ccc(C#N)cc2F)c1)C(=O)c1cn(C)cn1 [Compound 37], the IC50 is reported as no less than 0.1 µM.
Work on CC(C)N(Cc1cc(-c2ccc(F)cc2)cc(C(F)(F)F)c1)C(=O)c1cn(C)cn1 [Compound 49] yielded an IC50 greater than 1 µM.
CC(C)N(Cc1ccc(Cl)c(-c2ccc(F)cc2)c1)C(=O)c1cn(C)cn1 [Compound 51] gave an IC50 of no less than 0.1 µM.
Work on CC(C)CN(Cc1ccc(F)c(-c2ccc(F)c(F)c2)c1)C(=O)c1cn(C)cn1 [Compound 32] yielded an IC50 of no less than 0.1 µM.
In the case of CC(C)N(Cc1cc(-c2ccc(OC(F)(F)F)cc2)cc(C(F)(F)F)c1)C(=O)c1cn(C)cn1 [Compound 48], the IC50 is reported as greater than 1 µM.
With COc1ccc(CN(C(=O)c2cn(C)cn2)C(C)C)cc1-c1ccc(F)cc1 [Compound 43] the IC50 was greater than 1 µM.
Work on CC(C)N(Cc1ccc(F)c(-c2cccc(OC(F)(F)F)c2)c1)C(=O)c1ncn(C)n1 [Compound 3] yielded an IC50 of no less than 0.1 µM.
In the case of Cc1ccc(CN(C(=O)c2cn(C)cn2)C(C)C)cc1-c1ccc(OC(F)(F)F)cc1 [Compound 46], the IC50 is reported as greater than 1 µM.
In the case of CC(C)N(Cc1ccc(F)c(-c2cc(F)c(F)c(F)c2)c1)C(=O)c1c[nH]cn1 [Compound 41], the IC50 is reported as greater than 1 µM.
For CC(C)N(Cc1cc(OC(F)(F)F)cc(-c2ccc(F)cc2)c1)C(=O)c1cn(C)cn1 [Compound 50], the IC50 was greater than 1 µM.
CC(C)N(Cc1ccc(F)c(-c2ccc(OC(F)(F)F)cc2)c1)C(=O)c1ncn(C)n1 [Compound 4] was tested, and the IC50 was no less than 0.1 µM.
CC(C)N(Cc1ccc(F)c(-c2ccc(OC(F)(F)F)cc2)c1)C(=O)c1c[nH]cn1 [Compound 54] showed an IC50 greater than 1 µM.
Cc1ccc(CN(C(=O)c2cn(C)cn2)C(C)C)cc1-c1ccc(F)cc1 [Compound 47] gave an IC50 greater than 1 µM.
In the case of CC(C)N(Cc1ccc(F)c(-c2cccc(CO)c2)c1)C(=O)c1ncn(C)n1 [Compound 5], the IC50 is reported as no less than 0.1 µM.
CC(C)N(Cc1ccc(F)c(-c2ccc(C(F)(F)F)cc2)c1)C(=O)c1cn(C)cn1 [Compound 30] gave an IC50 of no less than 0.1 µM.

What follows are compounds tested against T2, P-glycoprotein (P-gp) (Homo sapiens, UniProt P08183) (assay: Test for substrate recognition by P-gp (LLC-GA5-COL300 cells)). Details: 10 μM, Human MDR1-expressing LLC-GA5-COL300 cells, Apical to Basolateral and Basolateral to Apical.
T2 construct: expressed in transfected cells; host or cells: LLC-GA5-COL300 (pig kidney LLC-PK1 cells expressing human MDR1)
T2 sequence (P08183 whole entry): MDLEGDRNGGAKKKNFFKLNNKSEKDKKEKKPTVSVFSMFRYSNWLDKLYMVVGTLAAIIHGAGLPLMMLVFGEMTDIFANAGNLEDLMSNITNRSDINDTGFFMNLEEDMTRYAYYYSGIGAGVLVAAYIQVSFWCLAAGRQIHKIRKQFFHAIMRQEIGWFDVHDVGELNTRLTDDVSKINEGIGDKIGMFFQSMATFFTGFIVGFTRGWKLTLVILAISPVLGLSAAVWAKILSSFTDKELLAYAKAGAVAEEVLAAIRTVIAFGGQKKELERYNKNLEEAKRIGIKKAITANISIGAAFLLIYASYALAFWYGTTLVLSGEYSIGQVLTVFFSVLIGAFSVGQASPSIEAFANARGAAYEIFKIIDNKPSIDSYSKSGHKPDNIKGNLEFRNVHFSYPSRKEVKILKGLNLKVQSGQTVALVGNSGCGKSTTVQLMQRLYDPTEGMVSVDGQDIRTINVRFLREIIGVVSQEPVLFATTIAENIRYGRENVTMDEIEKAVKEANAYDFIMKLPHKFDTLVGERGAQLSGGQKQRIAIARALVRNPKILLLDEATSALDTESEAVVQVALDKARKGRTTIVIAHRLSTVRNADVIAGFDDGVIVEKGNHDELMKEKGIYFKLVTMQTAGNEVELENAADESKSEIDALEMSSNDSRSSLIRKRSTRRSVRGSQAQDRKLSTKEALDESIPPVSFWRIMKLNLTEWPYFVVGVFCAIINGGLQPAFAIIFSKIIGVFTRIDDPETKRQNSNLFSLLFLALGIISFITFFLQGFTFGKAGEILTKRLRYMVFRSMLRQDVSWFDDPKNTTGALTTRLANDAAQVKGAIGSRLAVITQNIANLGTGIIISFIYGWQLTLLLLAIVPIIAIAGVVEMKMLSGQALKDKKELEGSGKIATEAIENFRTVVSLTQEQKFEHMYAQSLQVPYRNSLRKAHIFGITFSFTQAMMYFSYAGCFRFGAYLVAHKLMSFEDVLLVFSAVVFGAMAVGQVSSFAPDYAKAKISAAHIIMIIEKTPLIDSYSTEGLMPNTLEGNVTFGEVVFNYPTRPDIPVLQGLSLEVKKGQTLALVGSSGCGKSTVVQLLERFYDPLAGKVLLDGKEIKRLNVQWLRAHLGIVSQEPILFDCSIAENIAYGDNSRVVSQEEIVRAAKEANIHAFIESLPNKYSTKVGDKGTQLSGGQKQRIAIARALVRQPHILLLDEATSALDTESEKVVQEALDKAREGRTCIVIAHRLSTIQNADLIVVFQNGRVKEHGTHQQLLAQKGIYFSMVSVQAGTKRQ
Type: in vitro ADME
Excerpt: In the case of drugs that act on the central nervous system, it is generally important for such drugs to be transferred from blood into brain for development of their efficacy. In the blood-brain barrier, there is found P-glycoprotein (P-gp), which is a typical member of the efflux transporters that control drug penetration; and P-gp inhibits the penetration of its substrate drugs into the brain. Thus, in developing a drug, recognition performance as a P-gp substrate can be used as an indicator of brain penetration.
A test for substrate recognition by P-gp was conducted as described in J. Pharmacol. Exp. Ther. (1992) Vol. 263, No. 2, 840-845 and J. Biol. Chem. (1992) Vol. 267, No. 34, 24248-24252. Specifically, LLC-GA5-COL300 cells (i.e., a Human MDR1-expressing system originating from a pig kidney-derived cultured renal epithelial cell line, LLC-PK1) were used after being cultured for 4 days on trans wells, and the medium in each well was replaced by Hank's balanced salt solution (HBSS) immediately before use in the test. After a test compound solution (i.e., a DMSO solution of a test compound, which was further diluted with HBSS and adjusted to a final concentration of 10 μM) was added to the Donor side of the LLC-GA5-COL300 cells, aliquots of HBSS were sampled over time from the Acceptor side to determine the test compound concentration in each collected sample by LC-MS/MS.
The membrane permeability coefficient (×10^−6 cm/sec) was calculated by the accumulated amount of the compound into the Acceptor side for both directions, Apical to Basolateral and Basolateral to Apical. and the ratio of these coefficients (Efflux Ratio) was then used to evaluate substrate recognition by P-gp.
With CC(C)N(Cc1ccc(F)c(-c2ccc(F)c(F)c2)c1)C(=O)c1cn(C)cn1 [Compound 17] the “recognition as a P-gp substrate (Efflux Ratio criteria)” value was “not to be recognized as a P-gp substrate”.
For CC(C)N(Cc1ccc(F)c(-c2ccccc2)c1)C(=O)c1cn(C)cn1 [Compound 22], the “recognition as a P-gp substrate (Efflux Ratio criteria)” value was “not to be recognized as a P-gp substrate”.
CC(C)N(Cc1ccc(F)c(-c2cccc(F)c2)c1)C(=O)c1cn(C)cn1 [Compound 20] was tested, and the “recognition as a P-gp substrate (Efflux Ratio criteria)” value was “not to be recognized as a P-gp substrate”.
For COc1cccc(-c2cc(CN(C(=O)c3cn(C)cn3)C(C)C)ccc2F)c1 [Compound 24], the “recognition as a P-gp substrate (Efflux Ratio criteria)” value was “not to be recognized as a P-gp substrate”.
In the case of CC(C)N(Cc1ccc(F)c(-c2ccc(F)cc2)c1)C(=O)c1cn(C)cn1 [Compound 18], the “recognition as a P-gp substrate (Efflux Ratio criteria)” value is reported as “not to be recognized as a P-gp substrate”.
For CC(C)N(Cc1ccc(F)c(-c2ccc(OC(F)(F)F)cc2)c1)C(=O)c1c[nH]cn1 [Compound 54], the “recognition as a P-gp substrate (Efflux Ratio criteria)” value was “not to be recognized as a P-gp substrate”.
With CC(C)N(Cc1ccc(F)c(-c2cc(F)c(F)c(F)c2)c1)C(=O)c1cn(C)cn1 [Compound 36] the “recognition as a P-gp substrate (Efflux Ratio criteria)” value was “not to be recognized as a P-gp substrate”.
